The source of these data is PubChem BioAssay AID1645868 (Buhrlage Lab, Dana-Farber Cancer Institute and Novartis …, 2021).

As a reminder, the IC50 is the concentration at which inhibition is half-maximal.

The source made the active and inactive calls.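 How the source made its calls: active means maximal percent inhibition of the deubiquitinase OTUD3 of at least 30% across the tested doses; inactive means the rest.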

OTU domain-containing protein 3 (Homo sapiens), sequence (Q5T2D3 whole entry, looked up, the tested form may be a part): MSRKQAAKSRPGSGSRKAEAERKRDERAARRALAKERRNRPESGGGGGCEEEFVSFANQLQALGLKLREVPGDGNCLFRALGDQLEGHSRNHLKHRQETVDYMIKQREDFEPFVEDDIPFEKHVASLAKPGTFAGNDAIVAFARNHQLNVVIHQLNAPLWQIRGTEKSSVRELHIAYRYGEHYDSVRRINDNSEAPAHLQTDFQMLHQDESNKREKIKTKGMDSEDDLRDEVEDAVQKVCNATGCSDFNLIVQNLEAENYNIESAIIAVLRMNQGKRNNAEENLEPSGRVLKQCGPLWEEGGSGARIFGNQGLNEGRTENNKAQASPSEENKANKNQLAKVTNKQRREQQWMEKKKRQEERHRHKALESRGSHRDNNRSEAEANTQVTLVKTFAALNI

This assay addresses OTU domain-containing protein 3 (Homo sapiens) (UniProt Q5T2D3). In words: Validation of screening hits, potency titration, in vitro enzymatic, OTU domain-containing protein 3 DUB inhibitors (AID 1645868). As to conditions: purified OTUD3, ubiquitin-rhodamine cleavage fluorescence, 2 h.
For the compound `Cc1cc(C)c2sc(N(CCCn3ccnc3)C(=O)Cc3ccccc3)nc2c1`, the IC50 was 24 µM.
In the case of `CCOC(=O)c1sc2c(c1C)c(=O)n(Cc1ccccc1)c(=O)n2CC(N)=O` it was > 50 µM (inactive); in that of `COCCn1c(=S)[nH]c2cc(C(=O)NCCSCc3ccccc3)ccc2c1=O`, > 50 µM (inactive).
As for `COc1ccc(Cl)c(NC(=O)C2CC(=O)Nc3cc(-c4ccccc4)nn32)c1` (configuration not stated), the figure is 24.9 µM.
As for `Cc1c(Cl)cccc1NC(=O)Cn1c(=O)c2ccccc2n2nncc12`, the figure is > 50 µM (inactive); as for `COc1ccccc1C(=O)N1CCC(S(=O)(=O)c2ccc(-c3ccco3)cc2)CC1`, > 50 µM (inactive); as for `Cc1ccc(NC(=O)Cc2nnc3cc(-c4nc(C)no4)ccn23)cc1`, 21.8 µM.
As for `CCc1ccc(-n2c(=O)c3ccccc3n(CC(=O)NCCC3=CCCCC3)c2=O)cc1`, the IC50 was 21.3 µM.
In the case of `Cc1c(-c2nnc(-c3ccccc3Cl)o2)nnn1-c1ccccc1` it was > 50 µM (inactive); in that of `Cc1ccccc1Cn1cc(SCC(=O)Nc2ccc3c(c2)OCCO3)c2ccccc21`, > 50 µM (inactive).
As for `CS(=O)(=O)N1CCCN(c2nc3cc(Cl)ccc3n3cccc23)CC1`, the figure is > 50 µM (inactive).
As for `COc1ccc(NC(=O)Cn2cc(C(=O)c3ccc(C)cc3)c(=O)c3ccccc32)cc1`, the figure is 11.4 µM; as for `Cc1oc(-c2ccc(C(=O)NCC3COCCO3)cc2)nc1CN1CCc2ccccc21` (configuration not stated), > 50 µM (inactive).
For `COc1ccc(/C=C/C(=O)Nc2cccc(S(=O)(=O)Nc3ccccc3Cl)c2)c(OC)c1`, the IC50 is 25.5 µM.
With `COc1cccc(-c2cc(=O)[nH]c(Nc3nc(C)c4ccccc4n3)n2)c1`, the IC50 was > 50 µM (inactive).
Consider `CN(c1ccccc1)c1nc(=O)n(CC(=O)Nc2ccc3c(c2)OCCO3)c2ccccc12`, for which the IC50 was > 50 µM (inactive).
Consider `COc1ccccc1NC(=O)CNC(=O)c1nn(-c2ccc(OC)c(OC)c2)c(=O)c2ccccc12`, for which the IC50 is 38.8 µM.
As for `COc1c2c(cc3cc(O)c4c(=O)cc(C)oc4c13)CCC2=O`, the figure is > 50 µM (inactive); as for `O=C(OC1CSc2nc3ccccc3n2C1)c1ccc([N+](=O)[O-])o1` (configuration not stated), 25.7 µM; as for `Cc1ccc2nc(-c3cccc(-c4nc5ccc(C)cc5[nH]4)n3)[nH]c2c1`, > 50 µM (inactive).
For the compound `Cc1nn(-c2ccc([N+](=O)[O-])cc2)c(C)c1-c1nc2ccccc2[nH]1`, the half-maximal inhibitory concentration (IC50) is 24.3 µM.
As for `CCC(C)c1ccc(O[C@@H]2O[C@@H]3COC(c4ccccc4)O[C@H]3[C@H](O)[C@H]2NC(C)=O)cc1` (some centres not stated), the figure is 23.4 µM.
As for `Cc1ccc2c(Nc3ccc(CC(=O)O)cc3)c(C(=O)N3CCCC3)cnc2n1`, the figure is > 50 µM (inactive); as for `O=C(Nc1nc2c(s1)COCC2)c1cc(-c2ccco2)[nH]n1`, > 50 µM (inactive); as for `Cc1ccc2c(=O)c(C(=O)Nc3ccccc3)cn(CC(=O)NC3CCCCC3)c2n1`, > 50 µM (inactive).
In the case of `O=C(CN(Cc1ccc(Cl)cc1)S(=O)(=O)c1ccc(Cl)cc1)N1CCOCC1` it was > 50 µM (inactive); in that of `COc1ccc(CC(=O)Nc2ccc3nc(N4CCOCC4)cc(C)c3c2)cc1`, > 50 µM (inactive).
`O=C(Nc1ccccc1Cl)N(Cc1cc2cc3c(cc2[nH]c1=O)OCCO3)C1CCCCC1`: the IC50 was 40.6 µM.
For `CC1(C)C[C@@H](O)[C@]2(C)CC[C@]3(C)C(=CCC4[C@@]5(C)CC[C@H](O)[C@](C)(CO)[C@@H]5CC[C@]43C)[C@@H]2C1` (some centres not stated), the IC50 is > 50 µM (inactive).
In the case of `O=S(=O)(c1cccc2cccnc12)N(CCc1ccccc1)C1CCN(CCc2ccc(Cl)cc2)CC1` it was > 50 µM (inactive); in that of `NC(=O)c1nc(-c2cccc(F)c2)nc2c1[nH]c(=O)n2C1CCCCC1`, > 50 µM (inactive); in that of `O=C(Nc1cccc(C(F)(F)F)c1)c1cc2c(s1)-c1ccccc1OC2`, 15.2 µM.
